The values that follow come from article PMC2193274 (The Journal of Experimental Medicine, 2000).

Assay [1] addresses Qa-1^b (Mus musculus, UniProt P06339). It counts as binding. To be noted: competition with biotin-Qdm4C.
The test system of assay [2] is T2 cells expressing Qa-1^b (T237). It counts as cell-based, human. To be noted: for Inhibition of killing of T237 targets by Qa-1^b-Qdm tetramer-positive NK cells: 30 μM peptide overnight and during the 4-h assay, Fig. 6.
Assay [3] has as its system Dk. To be noted: cited from earlier work.

Sequence of Qa-1^b (P06339 21-304 limits assumed): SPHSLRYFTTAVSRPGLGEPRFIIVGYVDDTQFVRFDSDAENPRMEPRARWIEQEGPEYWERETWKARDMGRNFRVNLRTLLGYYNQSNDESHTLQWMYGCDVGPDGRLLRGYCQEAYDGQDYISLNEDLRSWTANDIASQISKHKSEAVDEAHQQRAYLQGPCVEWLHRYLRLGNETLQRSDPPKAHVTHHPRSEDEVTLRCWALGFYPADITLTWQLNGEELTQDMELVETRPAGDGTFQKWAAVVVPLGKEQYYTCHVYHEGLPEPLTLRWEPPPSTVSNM
Sequence of Qa-1^b (P61769 21-119 partner): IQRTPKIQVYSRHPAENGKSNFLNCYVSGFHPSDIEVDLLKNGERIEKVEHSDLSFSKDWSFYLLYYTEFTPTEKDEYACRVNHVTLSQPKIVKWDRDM

Turning to AMACRTLLL [Qdm4C], the “Binding affinity for Qa-1 in competition assays compared with Qdm” value in assay [1] is listed as “affinity similar or identical to Qdm”.
For the sequence AMAPRTLLL [Qdm], in assay [2], the “Inhibition of lysis of T237 targets by tetramer-negative NK cells” value is “does not inhibit lysis” and the “Inhibition of killing of T237 targets by Qa-1^b-Qdm tetramer-positive NK cells” value is reported as “markedly inhibit killing”.
For the sequence KMAPRTLLL [Qdm P1], in assay [2], the “Inhibition of killing of T237 targets by Qa-1^b-Qdm tetramer-positive NK cells” value is recorded as “Substantial inhibition”.
Regarding RRLGRTLLL [MT(389–397)], in assay [3], the “Binding to Dk” value is on record as “high affinity”.
